The values below come from publication PMC5108082, “Pharmacokinetics, toxicity, and cytochrome P450 modulatory activity of plumbagin” (BMC Pharmacology & Toxicology, 2016).

Structures are written as SMILES. pIC50: −log10 of the molar value.

The test system of one data set is CYP2C19. The following applies: cited from earlier work.
Data set [1] relates to platelet adhesion and coagulation. Particulars: rats, daily doses of 2 mg/kg body weight; plumbagin as a component of Plumbago zeylanica; cited from earlier work.
The next data set relates to CYP1A2 mRNA. Briefly: CYP1A2 mRNA expression in livers of treated mice (RT-PCR). Particulars: mice, 25, 12.5, 6.25 mg/kg daily oral for 28 days vs control. It is filed as in vivo, mouse. How it is done: Mice were divided into four groups (3 male mice each). Mice in the treated groups were fed with plumbagin at a daily oral dose of 25, 12.5, or 6.25 mg/kg body weight (1 mL) for 28 days. The control group received a daily oral dose (1 mL) of 20 % Tween-80 for 28 days. At the end of the experiment period, all animals were sacrificed under ether anesthesia and livers were removed for investigation of the modulatory effect of plumbagin on hepatic CYP1A2 and CYP3A11.
The liver sample isolated from each mouse was rinsed with ice-cold, 0.9 % NaCl and total RNA was prepared using Trizol^TM reagent according to the manufacturer’s protocol (Invitrogen, Karlsruhe, Germany). Briefly, the sample was homogenized in TRIZOL reagent (1 mL) per 50–100 mg of tissue. The homogenized sample was incubated at 25 °C for 5 min and chloroform (0.2 mL/1 mL of TRIZOL reagent) was added. The sample was thoroughly mixed and incubated at 25 °C for 3 min. Following centrifugation (12,000 × g for 15 min, 2–8 °C), the sample was separated into a lower red phenol-chloroform phase, an interphase, and a colorless upper aqueous phase. […] The RNA pellets were dried and dissolved in 20 μL DEPC-treated water and the concentrations were determined using NanoDrop Spectrophotometry (NanoDrop Technologies, Wilmington, DE, USA). […]

Data set [2] deals with K1 chloroquine-resistant P. falciparum. The following applies: K1 clone; read-out: median IC50; cited from earlier work.
A further data set deals with parasitemia. On the set-up: method as in PMID 24410949. The following applies: 25 mg/kg body weight given for 4 days; cited from earlier work.
Another data set relates to CYP3A4. The following applies: cited from earlier work.

Regarding `CC1=CC(=O)c2c(O)cccc2C1=O` [plumbagin, 5-hydroxy-2-methyl-1,4-naphthoquinone], the negative logarithm of the IC50 (pIC50) – broadly, the IC50 on a negative log10 scale, so that one unit is a factor of ten – is 6.11 in the data set with CYP2C19, 6.43 in data set [2] and 5.63 in the data set on CYP3A4. For the same molecule, in data set [1], the “platelet adhesion and coagulation” value is on record as “significantly decreased”. Further, the “modulation of CYP1A2 mRNA expression” value is listed as “not found to induce or inhibit” in the data set with CYP1A2 mRNA and “did not significantly modulate” with CYP1A2 mRNA (listed as Plumbagin). In the data set with parasitemia, the “antimalarial activity in vivo (reduction of parasitemia, prolongation of survival time)” value is listed as “weak”.
